Data set [1] relates to Rattus norvegicus. In words: Compound was evaluated for Serum creatinine concentration in glycerol injected rats treated with 1 mg/kg administered intraperitoneally. The format is functional, organism-based. More on the design: dose 1 mg/kg.
For the next data set, the species on record is Cavia porcellus. The experiment in a line: Ki ratio evaluated as the Ki of A2 to that A1 receptor values.
Data set [2] concerns the target T1, Adenosine A2 receptor (Rattus norvegicus, UniProt P29276+P30543). The data set is classed as cell membranes, Membrane.
The target of data set [3] is T1, Adenosine A2 receptor. The format is cell membranes, Membrane. The source holds these as a separate data set.
The target in data set [4] is T2, Adenosine receptor A1 (Cavia porcellus, UniProt P47745).
T2 sequence (P47745 whole entry): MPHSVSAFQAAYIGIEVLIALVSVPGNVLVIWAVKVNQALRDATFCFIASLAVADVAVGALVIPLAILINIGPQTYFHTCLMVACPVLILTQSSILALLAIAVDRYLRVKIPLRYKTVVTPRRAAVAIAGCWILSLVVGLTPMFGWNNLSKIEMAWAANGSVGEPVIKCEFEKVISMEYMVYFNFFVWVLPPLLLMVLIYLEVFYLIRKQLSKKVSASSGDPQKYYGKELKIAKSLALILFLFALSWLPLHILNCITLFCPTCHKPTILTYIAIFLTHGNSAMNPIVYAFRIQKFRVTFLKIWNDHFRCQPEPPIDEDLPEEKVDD
In words: Binding affinity carried out with [3H]cyclohexyladenosine in guinea pig forebrain membranes against adenosine A1 receptor. The format is cell membranes, Brain membranes.

In data set [5] the test system is Rattus norvegicus. The experiment in a line: Compound was evaluated for Serum creatinine concentration in glycerol injected rats treated with 10 mg/kg administered intraperitoneally. The format is functional, organism-based. More on the design: dose 10 mg/kg.
The species entered for data set [6] is Rattus norvegicus. The conditions noted are these: in vivo, po, 6 h.
Description: Compound administered at a dose of 6.25 mg/25 mL/kg orally to rats, urine collected for 6 hr and measured for K+ excretion.
The species named for data set [7] is Rattus norvegicus. Particulars: in vivo, po, 6 h. This is another data set of the same source.
Description: Compound administered at a dose of 6.25 mg/25 mL/kg orally to rats, urine collected for 6 hr and measured for Na+ excretion.
The species entered for data set [8] is Rattus norvegicus. Particulars: in vivo, po, 6 h. This is another data set of the same source.
Description: Compound administered at a dose of 6.25 mg/25 mL/kg orally to rats, urine collected for 6 hr and measured for urine volume.
In data set [9] the target is T2, Adenosine receptor A1.
Description: Inhibition of [3H]cyclohexyladenosine binding to guinea pig forebrain membranes Adenosine A1 receptor

`CCCn1c(=O)c2nc(C(C3CC3)C3CC3)[nH]c2n(CCC)c1=O`: in the data set on Rattus norvegicus [1], the Serum creatinine conc amounted to 2.99 mg/dL. For the same compound, in the data set listed under Cavia porcellus, the Ki ratio was found to be 140.
In turn, `CCCn1c(=O)c2nc(C(c3ccccc3)c3ccccc3)[nH]c2n(CCC)c1=O` displayed an inhibition constant (Ki) at Adenosine A2 receptor [2] greater than 100 µM. Besides, the Ki ratio in the data set filed under Cavia porcellus is greater than 48.
Compound `CCCC(CCC)c1nc2c(=O)n(CCC)c(=O)n(CCC)c2[nH]1` had an inhibitory constant (Ki) on Adenosine A2 receptor [3] of 0.59 µM. Moreover, in the data set listed under Cavia porcellus, the Ki ratio amounted to 7.6.
For the compound `Cn1c(=O)c2nc(C(C3CC3)C3CC3)[nH]c2n(C)c1=O`, the inhibitory constant (Ki) on Adenosine receptor A1 [4] was determined as 0.081 µM. Besides, the Ki ratio in the data set listed under Cavia porcellus was 33.
In the case of `CCCn1c(=O)c2nc(C(C3CCCCC3)C3CCCCC3)[nH]c2n(CCC)c1=O`, the inhibition constant (Ki) at Adenosine A2 receptor [3] and on Adenosine receptor A1 [4] was greater than 100 µM in each case.
Regarding `CCCC(CCC)c1nc2c([nH]1)c(=O)n(CCC)c(=O)n2CCC`, the affinity on Adenosine receptor A1 [4], expressed as Ki, was 0.078 µM.
For `CCCn1c(=O)c2nc(C(CC)Oc3ccccc3)[nH]c2n(CCC)c1=O` (centres undefined), the inhibition constant (Ki) is 3.3 µM on Adenosine A2 receptor [3] and 0.9 µM on Adenosine receptor A1 [4]. Moreover, the Ki ratio in the data set listed under Cavia porcellus stood at 3.7.
Turning to `CCCn1c(=O)c2[nH]c(C(c3ccc(F)cc3)C3CC3)nc2n(CCC)c1=O` (centres undefined), the inhibitory constant (Ki) at Adenosine receptor A1 [4] came out at 0.25 µM.
For `CCCn1c(=O)c2nc(C(C)CC)[nH]c2n(CCC)c1=O` (centres undefined), at Adenosine A2 receptor [3], the Ki was found to be 1.2 µM. For the same compound, in the data set listed under Cavia porcellus, the Ki ratio was 48.
On Adenosine receptor A1 [4], `CCCn1c(=O)c2[nH]c(C(C)Cc3ccc(OC)cc3)nc2n(CCC)c1=O` (centres undefined) came in with a Ki of 0.22 µM.
As for `CCCn1c(=O)c2nc(C(c3ccccc3)C3CC3)[nH]c2n(CCC)c1=O` (centres undefined), the inhibitory constant (Ki) at Adenosine A2 receptor [3] was determined as 1.8 µM; at Adenosine receptor A1 [4], 0.15 µM. Also, the Ki ratio in the data set filed under Cavia porcellus is 12.
The compound `CCCCn1c(=O)c2nc(C(C3CC3)C3CC3)[nH]c2n(CCCC)c1=O` yielded a Ki on Adenosine receptor A1 [4] of 0.0055 µM. Moreover, the Ki ratio in the data set filed under Cavia porcellus came to 80.
For `Cn1c(=O)c2[nH]cnc2n(C)c1=O.O` [THEOPHYLLINE], the Serum creatinine conc with Rattus norvegicus [5] came to 5.32 mg/dL. In the data set filed under Rattus norvegicus [6], the “K+ excretion” value was found to be 1.16 ml 6hr-1 100g-1. The “Na+ excretion” value in the data set listed under Rattus norvegicus [7] amounted to 1.52 ml 6hr-1 100g-1. In the data set filed under Rattus norvegicus [8], this compound showed a Urine volume of 1.42 ml 6hr-1 100g-1.
In the case of `CCCn1c(=O)c2nc(C(C)C)[nH]c2n(CCC)c1=O`, the inhibition constant (Ki) at Adenosine A2 receptor [3] was 1.5 µM; at Adenosine receptor A1 [4] it was 0.049 µM. Further, in the data set listed under Cavia porcellus, the Ki ratio was found to be 31.
On to `CCCn1c(=O)c2nc(C(c3ccc(OC)cc3)C3CC3)[nH]c2n(CCC)c1=O` (centres undefined), for which the results for the inhibitory constant (Ki) at Adenosine receptor A1 [4] and on Adenosine A2 receptor [2] were 0.25 µM and 2.2 µM, respectively. Besides, in the data set listed under Cavia porcellus, the Ki ratio is 8.8.
The compound `CCCn1c(=O)c2nc(C(C)Cc3ccccc3)[nH]c2n(CCC)c1=O` (centres undefined) showed a Ki on Adenosine A2 receptor [3] of 0.48 µM. Further, the Ki ratio in the data set listed under Cavia porcellus was 1.8.
For the compound `CCCn1c(=O)c2[nH]c(C(C3CC3C)C3CC3C)nc2n(CCC)c1=O` (centres undefined), the Ki at Adenosine receptor A1 [4] came out at 0.0097 µM.
On to `CCCn1c(=O)c2[nH]c(C3CCCC3)nc2n(CCC)c1=O` [1,3-DIPROPYL-8-CYCLOPENTYLXANTHINE [DPCPX]], for which the Serum creatinine conc in the data set on Rattus norvegicus [1] is 3.75 mg/dL. Moreover, the “K+ excretion” value in the data set listed under Rattus norvegicus [6] turned out to be 1.26 ml 6hr-1 100g-1. For the same compound, the “Na+ excretion” value in the data set listed under Rattus norvegicus [7] turned out to be 1.98 ml 6hr-1 100g-1. In the data set filed under Rattus norvegicus [8], this compound returned a Urine volume of 1.87 ml 6hr-1 100g-1.
For the compound `CCCn1c(=O)c2nc(C(c3ccccc3)C3CCCC3)[nH]c2n(CCC)c1=O` (centres undefined), the inhibition constant (Ki) at Adenosine A2 receptor [3] stood at 4 µM. The Ki ratio in the data set listed under Cavia porcellus was found to be 10.
For the compound `CCCn1c(=O)[nH]c(=O)c2[nH]c(C(C3CC3)C3CC3)nc21`, the Ki on Adenosine A2 receptor [3] was greater than 100 µM; on Adenosine receptor A1 [4], 1.3 µM. For the same compound, the Ki ratio in the data set filed under Cavia porcellus is greater than 77.
With `CCn1c(=O)c2nc(C(C3CC3)C3CC3)[nH]c2n(CC)c1=O`, the Ki ratio in the data set listed under Cavia porcellus was 53.
`CCCn1c(=O)c2nc(C(CC)CC)[nH]c2n(CCC)c1=O` returned an inhibitory constant (Ki) on Adenosine A2 receptor [3] of 0.57 µM. The Ki ratio in the data set listed under Cavia porcellus was 30.
For the compound `NS(=O)(=O)c1cc(C(=O)O)c(NCc2ccco2)cc1Cl`, the Serum creatinine conc in the data set on Rattus norvegicus [5] came out at 4.17 mg/dL.
On Adenosine receptor A1 [4], `CC(C)Cn1c(=O)n(C)c(=O)c2[nH]c(C(C3CC3)C3CC3)nc21` yielded an inhibition constant (Ki) of 0.012 µM. The Ki ratio in the data set listed under Cavia porcellus was 34.
As to `CCCn1c(=O)c2[nH]c(C(c3ccccc3)C3CCCC3)nc2n(CCC)c1=O` (centres undefined), affinity on Adenosine receptor A1 [4] was put at a Ki of 0.4 µM.
For the compound `CCCn1c(=O)c2nc(C(C)N)[nH]c2n(CCC)c1=O` (centres undefined), the Ki is greater than 100 µM on Adenosine A2 receptor [3] and 3 µM on Adenosine receptor A1 [4]. Further, the Ki ratio in the data set filed under Cavia porcellus is greater than 33.
As for `CCCn1c(=O)c2nc(C(C)Cc3ccc(OC)cc3)[nH]c2n(CCC)c1=O` (centres undefined), the inhibition constant (Ki) at Adenosine A2 receptor [3] turned out to be 0.58 µM. Also, the Ki ratio in the data set filed under Cavia porcellus came out at 2.6.
For `CCCn1c(=O)c2nc(C(C3CC3C)C3CC3C)[nH]c2n(CCC)c1=O` (centres undefined) the same measures were 1 µM and 100.
On Adenosine receptor A1 [4], `CCCn1c(=O)c2c(nc(C(C3CC3)C3CC3)n2CCC)n(CCC)c1=O` showed a Ki of 13 µM. For the same compound, the Ki ratio in the data set listed under Cavia porcellus is 0.48.
On to `Cn1c(=O)c2c(ncn2C)n(C)c1=O` [CAFFEINE], for which the inhibition constant (Ki) at Adenosine receptor A1 [9] was greater than 100 µM. Moreover, the “K+ excretion” value in the data set listed under Rattus norvegicus [6] is on record as 0.99 ml 6hr-1 100g-1; in the data set listed under Rattus norvegicus [7], 1.1 ml 6hr-1 100g-1. The same compound gave a Urine volume in the data set listed under Rattus norvegicus [8] of 0.92 ml 6hr-1 100g-1.
With `CCCn1c(=O)c2nc[nH]c2n(CCC)c1=O`, the inhibitory constant (Ki) at Adenosine receptor A1 [9] was 1.2 µM. This lies in the single-digit micromolar range.
As for `CCCn1c(=O)c2c(nc(C(C3CC3)C3CC3)n2C)n(CCC)c1=O`, the Ki at Adenosine receptor A1 [4] was 7.4 µM. Moreover, the Ki ratio in the data set filed under Cavia porcellus was found to be 3.9.
On to `CCCn1c(=O)c2nc(C(CC)c3ccccc3)[nH]c2n(CCC)c1=O` (centres undefined), for which the figures for the inhibition constant Ki on Adenosine A2 receptor [3] and at Adenosine receptor A1 [4] were 1.1 µM and 0.1 µM, respectively. Moreover, in the data set filed under Cavia porcellus, the Ki ratio came out at 11.
For the compound `CCn1c(=O)c2[nH]c(C(C3CC3)C3CC3)nc2n(CC)c1=O`, the Ki at Adenosine receptor A1 [4] was determined as 0.013 µM. That is a double-digit nanomolar value.
On the same count and under the same terms, under `CCCn1c(=O)c2[nH]c(C(C)Cc3ccccc3)nc2n(CCC)c1=O` (centres undefined) stands 0.26 µM.
`CCCn1c(=O)c2nc(C(c3ccc(F)cc3)C3CC3)[nH]c2n(CCC)c1=O` (centres undefined) had an inhibition constant Ki at Adenosine A2 receptor [3] of 1.4 µM. Moreover, in the data set filed under Cavia porcellus, the Ki ratio came to 5.6.
Consider `CCCn1c(=O)c2c(nc(C(C3CC3)C3CC3)n2CC)n(CCC)c1=O`, for which the affinity on Adenosine receptor A1 [4], expressed as Ki, was 1.6 µM. The Ki ratio in the data set filed under Cavia porcellus came out at 8.8.
For the compound `CCCn1c(=O)c2[nH]c(C(C)CC)nc2n(CCC)c1=O` (centres undefined), on Adenosine receptor A1 [4], the affinity corresponds to a Ki of 0.025 µM.
Still for that read-out and setting: next, `CCCn1c(=O)c2[nH]c(C(c3ccccc3)c3ccccc3)nc2n(CCC)c1=O`: 2.1 µM.
